Laboratory results reported in patent US20080004272A1, “Compositions and methods for modulating gated ion channels” (PainCeptor Pharma Corporation, priority 2006, published 2008).

Test system: carrageenan-induced thermal hyperalgesia
Assay: Carrageenan model, thermal hyperalgesia (Hargreaves' assay)
Assay type: in vivo
Conditions: rat, 10 mg/kg s.c. 30 min prior to carrageenan, tested 2, 3 and 4 h post
Experimental: Acute inflammatory hyperalgesia is induced in rats by unilateral injection of […] of a 3% solution of 1-carrageenan into the plantar surface of the left hind paw 2-4 h prior to testing. Thermal nociceptive thresholds are determined according to the method described elsewhere (Hargreaves et al., 1988). Briefly, through the glass surface, a radiant heat source (8 V, 50 W projector bulb) is focused onto the plantar surface of the hind paw. The rat's paw-withdrawal latency to this stimulus is recorded to the nearest 0.1 s. Each latency score is an average of three trials, which are separated by at least 5 min. In all rats, both the injured and uninjured hind paws are similarly tested, allowing direct comparisons between inflamed and non-inflamed paws.
FIG. 5 illustrates the effect of Compound 203 (10 mg/kg s.c.) on the thermal hyperalgesia (observed in the Hargreaves' assay) resulting from an acute paw inflammation caused by the intraplantar injection of 150 μl of a 3% solution of λ-carrageenan. Compound 203 was given 30 min prior to carrageenan injection and thermal hyperalgesia was tested 2, 3, and 4 h post carrageenan injection.

CN1CCc2c(-c3ccccc3)cc(C#N)c(N)c2C1 [Compound 203, 8-Amino-2-methyl-5-phenyl-1,2,3,4-tetrahydro-isoquinoline-7-carbonitrile]
Effect on thermal hyperalgesia: reduced the thermal hyperalgesia to level not significant to the control paw
